Calls of active or inactive are those of the source. The calls are words filed in the database; no cut-off is given here.
Key:
[1] = target: T1, Type-1 angiotensin II receptor (Homo sapiens, UniProt P30556); assay: Antagonist activity at human AT1 receptor expressed in CHO cells measured after overnight incubation by luciferase reporter gene assay; type: cell-based
T1 sequence (P30556 whole entry): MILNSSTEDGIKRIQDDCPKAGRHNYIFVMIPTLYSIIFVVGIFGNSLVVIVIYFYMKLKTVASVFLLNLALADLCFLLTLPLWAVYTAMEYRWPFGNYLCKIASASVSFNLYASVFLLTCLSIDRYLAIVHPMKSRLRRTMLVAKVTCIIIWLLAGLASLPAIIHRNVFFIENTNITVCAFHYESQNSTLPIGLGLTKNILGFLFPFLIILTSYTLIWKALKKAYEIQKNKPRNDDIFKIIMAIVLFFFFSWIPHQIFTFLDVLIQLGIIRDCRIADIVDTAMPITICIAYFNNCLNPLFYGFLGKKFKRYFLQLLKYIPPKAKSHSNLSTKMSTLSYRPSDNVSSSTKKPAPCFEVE

[2] = target: T2, Peroxisome proliferator-activated receptor gamma (Homo sapiens, UniProt P37231); assay: Agonist activity at human PPARgamma expressed in CV-1 cells by reporter gene assay; type: cell-based
T2 sequence (P37231 whole entry): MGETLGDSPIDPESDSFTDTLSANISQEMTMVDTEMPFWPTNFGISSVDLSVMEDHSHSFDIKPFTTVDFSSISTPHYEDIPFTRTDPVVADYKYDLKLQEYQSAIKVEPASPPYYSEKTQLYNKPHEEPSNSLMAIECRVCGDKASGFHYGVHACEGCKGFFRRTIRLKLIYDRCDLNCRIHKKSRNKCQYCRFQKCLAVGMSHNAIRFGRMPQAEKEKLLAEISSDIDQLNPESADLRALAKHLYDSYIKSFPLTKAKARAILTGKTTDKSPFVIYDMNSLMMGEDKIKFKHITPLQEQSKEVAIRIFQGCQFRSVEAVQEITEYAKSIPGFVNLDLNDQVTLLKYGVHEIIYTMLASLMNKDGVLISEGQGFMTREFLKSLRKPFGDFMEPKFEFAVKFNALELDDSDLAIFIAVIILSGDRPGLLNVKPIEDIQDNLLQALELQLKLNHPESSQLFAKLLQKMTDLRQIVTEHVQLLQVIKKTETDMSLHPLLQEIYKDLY

[3] = target: T3, Peroxisome proliferator-activated receptor alpha (Mus musculus, UniProt P23204); assay: Agonist activity at mouse PPARalpha expressed in CV-1 cells by reporter gene assay; type: cell-based
T3 sequence (P23204 whole entry): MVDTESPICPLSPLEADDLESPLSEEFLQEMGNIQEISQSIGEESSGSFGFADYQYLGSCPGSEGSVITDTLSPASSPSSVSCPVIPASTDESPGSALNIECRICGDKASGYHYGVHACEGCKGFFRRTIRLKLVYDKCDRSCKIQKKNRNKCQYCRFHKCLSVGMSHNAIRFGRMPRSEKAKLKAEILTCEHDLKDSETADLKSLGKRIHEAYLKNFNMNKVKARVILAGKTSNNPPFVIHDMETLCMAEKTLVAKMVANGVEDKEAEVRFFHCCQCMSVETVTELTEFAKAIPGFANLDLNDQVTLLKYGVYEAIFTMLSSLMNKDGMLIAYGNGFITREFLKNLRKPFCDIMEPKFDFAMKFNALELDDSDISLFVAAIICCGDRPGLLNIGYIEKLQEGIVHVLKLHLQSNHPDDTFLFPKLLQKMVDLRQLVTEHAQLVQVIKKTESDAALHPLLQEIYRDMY

[4] = target: T4, Peroxisome proliferator-activated receptor delta (Mus musculus, UniProt P35396); assay: Agonist activity at mouse PPARdelta expressed in CV-1 cells by reporter gene assay; type: cell-based
T4 sequence (P35396 whole entry): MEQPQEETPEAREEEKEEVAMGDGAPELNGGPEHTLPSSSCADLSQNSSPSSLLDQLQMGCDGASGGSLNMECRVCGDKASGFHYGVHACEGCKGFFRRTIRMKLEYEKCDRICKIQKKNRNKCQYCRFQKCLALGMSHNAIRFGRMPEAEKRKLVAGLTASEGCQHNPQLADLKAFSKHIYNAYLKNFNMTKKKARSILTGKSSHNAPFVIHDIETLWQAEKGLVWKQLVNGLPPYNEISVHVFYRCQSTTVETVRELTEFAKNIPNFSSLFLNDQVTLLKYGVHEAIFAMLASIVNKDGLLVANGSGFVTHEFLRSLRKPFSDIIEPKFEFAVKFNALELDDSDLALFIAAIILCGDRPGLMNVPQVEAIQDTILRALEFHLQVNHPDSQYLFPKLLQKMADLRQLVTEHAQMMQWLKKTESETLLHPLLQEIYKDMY

[5] = target: T5, Peroxisome proliferator-activated receptor gamma (Mus musculus, UniProt P37238); assay: Agonist activity at mouse PPARgamma expressed in CV-1 cells by reporter gene assay; type: cell-based
T5 sequence (P37238 whole entry): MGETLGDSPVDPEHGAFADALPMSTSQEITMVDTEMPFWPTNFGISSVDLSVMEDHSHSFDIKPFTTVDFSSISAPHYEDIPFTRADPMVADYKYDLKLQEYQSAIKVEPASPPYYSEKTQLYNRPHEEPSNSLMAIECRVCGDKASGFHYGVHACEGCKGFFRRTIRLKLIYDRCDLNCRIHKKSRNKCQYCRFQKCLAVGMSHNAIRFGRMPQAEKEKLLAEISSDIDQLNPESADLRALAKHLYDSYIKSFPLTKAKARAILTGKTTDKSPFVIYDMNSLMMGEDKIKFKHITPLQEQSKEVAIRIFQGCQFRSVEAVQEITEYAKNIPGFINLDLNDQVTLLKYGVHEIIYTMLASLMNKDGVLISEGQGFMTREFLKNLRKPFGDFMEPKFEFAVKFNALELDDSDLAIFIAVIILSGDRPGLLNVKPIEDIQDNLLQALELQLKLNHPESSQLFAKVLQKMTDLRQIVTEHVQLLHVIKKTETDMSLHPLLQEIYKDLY

[6] = target: T6, Peroxisome proliferator-activated receptor gamma (Mus musculus) (UniProt P37238); assay: Agonist activity at mouse PPARgamma expressed in CV-1 cells by reporter gene assay relative to rosiglitazone; type: cell-based
T6 sequence (whole entry): T5 sequence (P37238 whole entry)

Rattus norvegicus [7] = assay: Reduction in insulin level in Zucker fa/fa rat plasma at 1 mg/kg, po qd for 5 days relative to vehicle-treated control control; type: functional, organism-based; set-up: dose 1 mg/kg
Rattus norvegicus [8] = assay: Toxicity in Zucker fa/fa rat assessed as increase in body weight gain at 75 mg/kg, po qd for 5 days relative to vehicle-treated control control; type: organism-based; set-up: dose 75 mg/kg, route oral; details: in vivo, 120 h
Rattus norvegicus [9] = assay: Toxicity in Zucker fa/fa rat assessed as increase in body weight gain at 1 mg/kg, po qd for 5 days relative to vehicle-treated control control; type: organism-based; set-up: dose 1 mg/kg, route oral; details: in vivo, 120 h
Rattus norvegicus [10] = assay: Reduction in free fatty acid level in Zucker fa/fa rat plasma at 1 mg/kg, po qd for 5 days relative to vehicle-treated control control; type: functional, organism-based; set-up: dose 1 mg/kg
Rattus norvegicus [11] = assay: Reduction in triglyceride level in Zucker fa/fa rat plasma at 1 mg/kg, po qd for 5 days relative to vehicle-treated control control; type: functional, organism-based; set-up: dose 1 mg/kg
[12] = target: T7, Peroxisome proliferator-activated receptor alpha (Mus musculus) (UniProt P23204); assay: Agonist activity at mouse PPARalpha expressed in CV-1 cells by reporter gene assay relative to rosiglitazone
T7 sequence (whole entry): T3 sequence (P23204 whole entry)

[13] = target: T8, Peroxisome proliferator-activated receptor gamma (Homo sapiens) (UniProt P37231); assay: Partial agonist activity at human PPARgamma expressed in CV-1 cells by reporter gene assay relative to rosiglitazone; type: cell-based
T8 sequence (whole entry): T2 sequence (P37231 whole entry)

[14] = target: T5, Peroxisome proliferator-activated receptor gamma; assay: Partial agonist activity at mouse PPARgamma expressed in CV-1 cells by reporter gene assay; type: cell-based
[15] = target: T6, Peroxisome proliferator-activated receptor gamma (Mus musculus); assay: Partial agonist activity at mouse PPARgamma expressed in CV-1 cells by reporter gene assay relative to rosiglitazone; type: cell-based
[16] = target: T2, Peroxisome proliferator-activated receptor gamma; assay: Partial agonist activity at human PPARgamma expressed in CV-1 cells by reporter gene assay; type: cell-based

CCCc1nn2ccc(-c3nc4ccccc4n3CCC)cc2c1Cc1ccc(-c2ccccc2C(=O)O)cc1
IC50 [1]: 85 nM
EC50 [2]: 280 nM
EC50 [3]: > 10 µM
EC50 [4]: > 10 µM
EC50 [5]: 380 nM
max activation [6]: 27%

CN(CCOc1ccc(C[C@H](Nc2ccccc2C(=O)c2ccccc2)C(=O)O)cc1)c1ccccn1
Activity (Rattus norvegicus [7]): Active
Activity (Rattus norvegicus [8]): Non-toxic
Activity (Rattus norvegicus [9]): Toxic
Activity (Rattus norvegicus [10]): Active
Activity (Rattus norvegicus [11]): Active

CCCc1c(Cc2ccc(-c3ccccc3C(=O)O)cc2)c2cc(C(=O)NC(CC)c3ccccc3)ccc2n1OC (configuration not stated)
IC50 [1]: > 10000 nM
EC50 [2]: 90 nM
EC50 [3]: > 10 µM
EC50 [4]: > 10 µM
EC50 [5]: 200 nM
max activation [6]: 17%

CCCc1c(Cc2ccc(-c3ccccc3C(=O)O)cc2)c2ccc(C(=O)NC(CC)c3ccccc3)cc2n1C (configuration not stated)
IC50 [1]: > 10000 nM
max activation [12]: 90%
EC50 [2]: 2 nM
EC50 [3]: 0.17 µM
EC50 [5]: 3 nM
max activation [6]: 42%

CCCn1nc2ccc(C(=O)NC(CC)c3ccccc3)cc2c1Cc1ccc(-c2ccccc2C(=O)O)cc1 (configuration not stated)
IC50 [1]: 1000 nM
max activation [13]: 24%
EC50 [14]: 250 nM
max activation [15]: 19%
EC50 [3]: > 10 µM
EC50 [4]: > 10 µM
EC50 [16]: 130 nM

CCCc1nc2ccc(C(=O)NC(CC)c3ccccc3)cc2n1Cc1ccc(-c2ccccc2C(=O)O)cc1 (configuration not stated)
IC50 [1]: 288 nM

CCCc1[nH]c2ccc(C(=O)NC(CC)c3ccccc3)cc2c1Cc1ccc(-c2ccccc2C(=O)O)cc1 (configuration not stated)
IC50 [1]: > 10000 nM
EC50 [2]: 350 nM
EC50 [3]: > 10 µM
EC50 [5]: 510 nM
max activation [6]: 24%

CCCc1nn2ccc(-c3nc4ccccc4n3CCC)cc2c1Cc1ccc(-c2ccccc2-c2nn[nH]n2)cc1
max activation [6]: 60%

Reference: ChEMBL document CHEMBL3112505, “Discovery of novel indazole derivatives as dual angiotensin II antagonists and partial PPARγ agonists” (Bioorg Med Chem Lett, 2014)
